Laboratory results: ChEMBL document CHEMBL3232934, “Synthesis of thio-heterocyclic analogues from Baylis-Hillman bromides as potent cyclooxygenase-2 inhibitors” (Bioorg Med Chem Lett, 2014)

Assays:
[1] = target: T1, Prostaglandin G/H synthase 2 (Homo sapiens) (UniProt P35354); conditions: at 100 µM
T1 sequence (whole entry): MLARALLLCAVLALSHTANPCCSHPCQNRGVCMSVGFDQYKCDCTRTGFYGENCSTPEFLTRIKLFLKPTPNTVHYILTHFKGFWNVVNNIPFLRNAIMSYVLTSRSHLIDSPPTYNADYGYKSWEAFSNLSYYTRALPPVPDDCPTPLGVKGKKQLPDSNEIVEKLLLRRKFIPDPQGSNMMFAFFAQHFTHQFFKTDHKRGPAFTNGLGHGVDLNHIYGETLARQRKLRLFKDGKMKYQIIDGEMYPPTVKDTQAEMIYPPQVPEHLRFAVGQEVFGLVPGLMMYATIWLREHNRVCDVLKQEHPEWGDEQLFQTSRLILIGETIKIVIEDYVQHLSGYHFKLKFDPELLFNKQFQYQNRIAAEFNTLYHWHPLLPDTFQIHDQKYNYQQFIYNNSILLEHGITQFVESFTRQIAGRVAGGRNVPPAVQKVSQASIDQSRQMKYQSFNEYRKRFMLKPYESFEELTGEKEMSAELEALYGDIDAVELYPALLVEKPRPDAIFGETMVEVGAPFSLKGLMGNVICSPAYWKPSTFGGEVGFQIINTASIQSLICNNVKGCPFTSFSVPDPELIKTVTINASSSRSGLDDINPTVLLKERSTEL
Description: Inhibition of COX2 (unknown origin) at 100 uM by colorimetric method

[2] = target: Prostaglandin G/H synthase 1 (Homo sapiens) (UniProt P23219); conditions: at 100 µM;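 note: COX-1 enzyme inhibition, read out colorimetrically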
Sequence of Prostaglandin G/H synthase 1 (Homo sapiens) (P23219 whole entry): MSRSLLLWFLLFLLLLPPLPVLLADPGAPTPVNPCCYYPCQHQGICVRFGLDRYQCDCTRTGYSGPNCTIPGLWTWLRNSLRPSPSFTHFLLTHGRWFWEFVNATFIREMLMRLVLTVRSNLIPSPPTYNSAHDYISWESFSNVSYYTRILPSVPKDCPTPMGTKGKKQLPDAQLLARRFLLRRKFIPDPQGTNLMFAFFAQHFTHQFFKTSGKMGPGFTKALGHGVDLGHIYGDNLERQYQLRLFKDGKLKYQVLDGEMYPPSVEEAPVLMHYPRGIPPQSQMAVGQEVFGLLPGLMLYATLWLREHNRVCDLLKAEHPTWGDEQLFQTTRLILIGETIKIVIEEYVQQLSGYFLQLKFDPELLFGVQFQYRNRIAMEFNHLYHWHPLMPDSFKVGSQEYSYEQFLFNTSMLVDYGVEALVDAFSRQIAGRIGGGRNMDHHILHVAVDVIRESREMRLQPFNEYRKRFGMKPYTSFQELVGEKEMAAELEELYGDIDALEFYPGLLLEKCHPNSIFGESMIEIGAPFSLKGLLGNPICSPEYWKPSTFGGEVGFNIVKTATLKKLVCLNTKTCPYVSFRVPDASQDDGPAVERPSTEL
Description: Inhibition of COX1 (unknown origin) at 100 uM by colorimetric method

[3] = target: T2, Prostaglandin G/H synthase 2 (Homo sapiens, UniProt P35354); test: Inhibition of COX2 (unknown origin) by colorimetric method
T2 sequence (P35354 whole entry): T1 sequence (whole entry)

SMILES	inhibition [1] [%]	inhibition [2] [%]	IC50 [3] [µM]
COC(=O)/C(=C/c1ccc(C(F)(F)F)cc1)CSc1nc2ccccc2s1	77.5	51.4	–
COC(=O)/C(=C/c1ccc(Cl)cc1)CSc1nc(C)cc(C)n1	53.5	50.7	–
COC(=O)/C(=C/c1ccc(OC)cc1)CSc1nc(C)cc(C)n1	80.2	65.3	–
CCOC(=O)/C(=C/c1cccc(Cl)c1)CSc1nc(C)cc(C)n1	78.6	24.4	5.88
CCOC(=O)/C(=C/c1ccc(C(C)C)cc1)CSc1nc2ccccc2o1	81	47	–
COC(=O)/C(=C/c1ccc2ccccc2c1)CSc1nc2ccccc2s1	75.1	28.8	2.93
CCOC(=O)/C(=C/c1ccc(Br)cc1)CSc1nc2ccccc2o1	64.7	54.3	–
CCOC(=O)/C(=C/c1ccc(C(C)C)cc1)CSc1nc(C)cc(C)n1	77.4	44.1	–
COC(=O)/C(=C/c1ccc2ccccc2c1)CSc1nc(C)cc(C)n1	73.5	46.3	–
CCOC(=O)/C(=C/c1ccc(CC)cc1)CSc1nc(C)cc(C)n1	76.5	55.1	–
COC(=O)/C(=C/c1ccc(F)cc1)CSc1nc2ccccc2o1	72	47.8	–
CCOC(=O)/C(=C/c1cccc(Cl)c1)CSc1nc2ccccc2o1	76.7	50	–
COC(=O)/C(=C/c1ccc(OC)cc1)CSc1nc2ccccc2o1	77.1	2	4.76
CCc1ccc(/C=C(\CSc2nncn2C)C(=O)OC)cc1	62.4	57.2	–
CCOC(=O)/C(=C/c1cccc(F)c1)CSc1nncn1C	78.6	20.8	3.88
CCOC(=O)/C(=C/c1ccc(Br)cc1)CSc1nc(C)cc(C)n1	78.5	38.3	3.17
COC(=O)/C(=C/c1ccc(Cl)cc1)CSc1nc2ccccc2o1	74.8	42.7	–
COC(=O)/C(=C/c1ccc(F)cc1)CSc1nc(C)cc(C)n1	71	50.7	–
COC(=O)/C(=C/c1ccc2ccccc2c1)CSc1nc2ccccc2o1	78.4	1	4.34
COC(=O)/C(=C/c1ccc(C(F)(F)F)cc1)CSc1nc2ccccc2o1	81.9	39	2.95
